{
  "source": "patent US20120141539A1",
  "about": "“METHODS FOR MODULATING TOLL-LIKE RECEPTOR MEDIATED ACTIVATION OF CELLS OF THE INNATE SYSTEM BY MODULATING XBP-1 ACTIVITY” (PRESIDENT AND FELLOWS OF HARVARD COLLEGE, priority 2009, published 2012)",
  "key": {"XBP-1 mRNA splicing [1]": {"test_system": "XBP-1 mRNA splicing", "experiment": "XBP-1 splicing assay in J774 macrophages", "assay_type": "cell-based, mouse", "conditions": "for effect of inhibitor on LPS-induced XBP-1 splicing: LPS stimulation"}, "IFNβ": {"test_system": "IFNβ", "conditions": "macrophage cell line; J. Smith et al. 2008; cited from earlier work"}, "XBP-1 mRNA splicing [2]": {"test_system": "XBP-1 mRNA splicing", "experiment": "XBP-1 splicing in primary macrophages", "assay_type": "cell-based, mouse"}, "[3]": {"test_system": "CHOP, PDI, WSF1 expression", "experiment": "ER-stress related gene expression in primary macrophages", "assay_type": "cell-based, mouse"}, "IRE1α": {"test_system": "IRE1α", "experiment": "IRE1α activation (phosphorylation status, immunoblot) in J774 macrophages", "assay_type": "cell-based, mouse", "conditions": "J774 macrophages stimulated with the substance", "method": "(§1) Total cell extracts were loaded on SDS-PAGE for separation and transferred to PDVF membranes. For Western blot the following antibodies were used: anti-XBP-1s (Biolegend), anti-phospho PERK, IRE1 and phospho-JNK (Cell Signaling), ATF4, HSP90, IkappaBβ and CHOP (Santa Cruz Biotechnology), anti-ATF6α and anti proIL-1β.\n(§2) The ability of TLRs to activate the three branches of the ER stress response was tested. J774 macrophages were stimulated with the TLR4 and TLR2 agonists, LPS and Pam3CSK4, and IRE1α, PERK and ATF6 activation were analyzed. ATF6 activation was tested by monitoring the liberation of its cleaved fragment, and PERK and IRE1α activation by examining their phosphorylation status. […] To further examine the effects of TLR signaling on the classical. ER stress response, cells were stimulated with tunicamycin (TM), a potent pharmacologic ER-stress inducer, in the presence or absence of LPS. […] Therefore, TLRs trigger a biased ER-stress response by activating IRE1 while inhibiting the PERK and ATF6 pathways."}, "ATF6": {"test_system": "ATF6", "experiment": "ATF6 activation (liberation of cleaved fragment) in J774 macrophages", "assay_type": "cell-based, mouse", "conditions": "for activation of ATF6 (cleaved fragment): J774 macrophages stimulated with the substance", "method": "as §1, §2"}, "PERK": {"test_system": "PERK", "experiment": "PERK activation (phosphorylation status) in J774 macrophages", "assay_type": "cell-based, mouse", "conditions": "J774 macrophages stimulated with the substance", "method": "as §1, §2"}, "[4]": {"test_system": "CHOP, BiP, Erdj4 and PDI expression", "experiment": "ER-stress target gene expression (quantitative RT-PCR) in J774 macrophages", "assay_type": "cell-based, mouse", "conditions": "for induction of the classic ER stress downstream target genes CHOP and BiP: J774 macrophages stimulated with the substance", "method": "(§3) Total RNA was prepared using Trizol (Invitrogen) and cDNA synthesis with High capacity cDNA Reverse transcription kit purchased from Applied Biosystems. Quantitative RT-PCR was performed employing SYBR green fluorescent reagent on a Mx3005P® QPCR System from Strategene. The relative amounts of mRNA were calculated from the values of comparative threshold cycle by using β-actin as control.\nas §2"}, "ISG15": {"test_system": "ISG15", "experiment": "ISG15 production by LPS stimulated macrophages under ER stress", "assay_type": "cell-based, mouse", "conditions": "cells simultaneously ER-stressed with TM", "method": "as §3\nTherefore, it was determined whether augmenting this pathway through pharmacologic induction of an ER stress response would enhance the natural response to microbial products. […] Importantly, this finding was confirmed in primary WT and XBP-1Δ macrophages that were left untreated or pre-treated for 12 h with a low dose of TM and then stimulated with LPS for 3 h."}, "IL-6": {"test_system": "IL-6", "experiment": "IL-6 production by LPS stimulated macrophages under ER stress", "assay_type": "cell-based, mouse"}, "[5]": {"conditions": "J774 macrophages, co-treatment with TM"}},
  "data": [
    {"molecule": "c1ccc2c(c1)[I+]c1ccccc1-2", "note": "[DPI, diphenyleneiodonium chloride]", "values": [
      {"measurement": "effect of inhibitor on LPS-induced XBP-1 splicing", "setting": "XBP-1 mRNA splicing [1]", "result": "abolished"}
    ]},
    {"molecule": "COc1cc(C(C)=O)ccc1O", "note": "[apocynin]", "values": [
      {"measurement": "effect of inhibitor on LPS-induced XBP-1 splicing", "setting": "XBP-1 mRNA splicing [1]", "result": "abolished"}
    ]},
    {"molecule": "C/C=C(/C)C(=O)O[C@H]1C(C)=C2[C@H]([C@@H]1OC(=O)CCCCCCC)[C@@](C)(OC(C)=O)C[C@H](OC(=O)CCC)[C@@]1(O)[C@H]2OC(=O)[C@@]1(C)O", "note": "[thapsigargin]", "values": [
      {"measurement": "IFNβ production upon stimulation with LPS", "setting": "IFNβ", "result": "increased IFNβ production"}
    ]},
    {"molecule": "FSL1", "values": [
      {"measurement": "XBP-1 splicing in TLR2 deficient macrophages", "setting": "XBP-1 mRNA splicing [2]", "result": "did not activate XBP-1 splicing"}
    ]},
    {"molecule": "Pam3CSK4", "values": [
      {"measurement": "TLR2 dampening of the ER-stress response: dependence on MyD88", "setting": "[3]; primary macrophages from MyD88 deficient mice", "result": "MyD88 dependent"},
      {"measurement": "activation of IRE1α (slower migrating phosphorylated species)", "setting": "IRE1α", "result": "Clear activation"},
      {"measurement": "activation of ATF6 (cleaved fragment)", "setting": "ATF6", "result": "neither activation of ATF6 or PERK"},
      {"measurement": "XBP-1 splicing in TLR2 deficient macrophages", "setting": "XBP-1 mRNA splicing [2]", "result": "did not activate XBP-1 splicing"},
      {"measurement": "activation of PERK (phosphorylation status)", "setting": "PERK", "result": "neither activation of ATF6 or PERK"},
      {"measurement": "induction of the classic ER stress downstream target genes CHOP and BiP", "setting": "[4]", "result": "nor induction of the classic ER stress downstream target genes, CHOP and BiP, was observed"}
    ]},
    {"molecule": "lipopolysaccharide [LPS]", "values": [
      {"measurement": "induction of classic ER-stress related genes such as CHOP or PDI", "setting": "[3]; XBP-1Δ macrophages or WT macrophages", "result": "no induction"},
      {"measurement": "activation of IRE1α (slower migrating phosphorylated species)", "setting": "IRE1α", "result": "Clear activation"},
      {"measurement": "activation of ATF6 (cleaved fragment)", "setting": "ATF6", "result": "neither activation of ATF6 or PERK"},
      {"measurement": "effect of co-treatment on proteolytic processing of ATF6α by TM", "setting": "ATF6; [5]", "result": "dramatically repressed"},
      {"measurement": "splicing of XBP-1 mRNA and production of XBP-1s protein", "setting": "XBP-1 mRNA splicing [1]; J774 macrophages, time after stimulation", "result": "detected as early as 3 hours"},
      {"measurement": "activation of XBP-1 in TLR4 mutant macrophages", "setting": "XBP-1 mRNA splicing [2]; macrophages from mice carrying a mutation in the signaling domain of TLR4", "result": "did not activate XBP-1"},
      {"measurement": "effect on TM-induced XBP-1 splicing", "setting": "XBP-1 mRNA splicing [2]; macrophages, TM plus LPS", "result": "increased"},
      {"measurement": "activation of XBP-1 in wild type primary macrophages", "setting": "XBP-1 mRNA splicing [2]; primary macrophages from wild type (WT) mice", "result": "observed"},
      {"measurement": "activation of PERK (phosphorylation status)", "setting": "PERK", "result": "neither activation of ATF6 or PERK"},
      {"measurement": "expression of the XBP-1 target genes Erdj4 or PDI", "setting": "[4]; J774 macrophages", "result": "did not induce"},
      {"measurement": "induction of the classic ER stress downstream target genes CHOP and BiP", "setting": "[4]", "result": "nor induction of the classic ER stress downstream target genes, CHOP and BiP, was observed"},
      {"measurement": "effect of co-treatment on TM induction of mRNAs including CHOP, PDI and Erdj4", "setting": "[4]; [5]", "result": "dramatically repressed"},
      {"measurement": "classic ER-stress response as measured by CHOP, BiP, Erdj4 and PDI expression", "setting": "[4]; J774 macrophages, experiment with or without TM", "result": "did not induce a classic ER-stress response"}
    ]},
    {"molecule": "tunicamycin [TM]", "values": [
      {"measurement": "induction of PDI and WSF1 in XBP-1Δ macrophages", "setting": "[3]; XBP-1Δ macrophages versus WT", "result": "reduced"},
      {"measurement": "activation of IRE1α (slower migrating phosphorylated species)", "setting": "IRE1α", "result": "induced activation of all three branches"},
      {"measurement": "activation of ATF6 (cleaved fragment)", "setting": "ATF6", "result": "induced activation of all three branches"},
      {"measurement": "amount of ISG15 produced by LPS stimulated macrophages", "setting": "ISG15", "result": "dramatically and synergistically increased"},
      {"measurement": "activation of PERK (phosphorylation status)", "setting": "PERK", "result": "induced activation of all three branches"},
      {"measurement": "amount of IL-6 produced by LPS stimulated macrophages", "setting": "IL-6; cells simultaneously ER-stressed with TM", "result": "dramatically and synergistically increased"},
      {"measurement": "IL-6 production in primary WT macrophages", "setting": "IL-6; pre-treated 12 h with low dose of TM, then LPS 3 h", "result": "augmented IL-6 production"}
    ]}
  ]
}
